Measured values reported in patent EP4603105A1, “PHARMACEUTICAL COMPOSITION CONTAINING CYCLIC COMPOUND HAVING SELECTIVE KRAS INHIBITORY EFFECT AGAINST HRAS AND NRAS” (CHUGAI SEIYAKU KABUSHIKI KAISHA, priority 2022, dated 2024).
*1 amine or outer side, *2 acyl side, *3 side chain or, on linkers, in order; H or OH if unused. Where a SMILES comes first, the peptide text is derived from it. Bridges are numbered along the chain shown (N, C = ends). [ ]: non-standard residue; d: D form. The star is where a group is joined. hPhe(3-Cl-4-CF3) = N[C@@H](CCc1ccc(C(F)(F)F)c(Cl)c1)C(=O)O; X1 = CCCCN([C@@H](Cc1ccc(C)cc1)C(=O)[*:2])[*:1]; NMeGly(cPent) = CN[C@H](C(=O)O)C1CCCC1; NMeD = CN[C@@H](CC(=O)O)C(=O)O; NMeL = CN[C@@H](CC(C)C)C(=O)O; Morpholide = C1CN(*)CCO1; NMeA = CN[C@@H](C)C(=O)O; Ac5c = NC1(C(=O)O)CCCC1; Aze = O=C(O)[C@@H]1CCN1; Sar = CNCC(=O)O

Tests used:
[1] = target: GDP-bound KRAS wild-type protein (Homo sapiens, UniProt P01116); test: Binding to KRAS by surface plasmon resonance (SPR), dissociation constant KD
Chain of GDP-bound KRAS wild-type protein (P01116 1-188 isoform P01116-2): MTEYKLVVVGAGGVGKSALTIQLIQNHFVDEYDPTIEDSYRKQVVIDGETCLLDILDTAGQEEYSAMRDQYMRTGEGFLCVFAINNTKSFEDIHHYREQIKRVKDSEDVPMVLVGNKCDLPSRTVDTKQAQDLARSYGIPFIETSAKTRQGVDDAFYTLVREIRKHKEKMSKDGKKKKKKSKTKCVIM
Procedure: Surface plasmon resonance was used to analyze the binding affinity of compounds for KRAS, NRAS, and HRAS. The apparatus used was Biacore 8K, 8K+, or T200 (GE Healthcare), and the running buffer used was HBS (10 mM HEPES-NaOH, 150 mM NaCl, pH 7.4) containing 1 mM DTT, 10 mM MgCl2, 0.01% Tween 20, 10 µM GDP, and 4% DMSO.
Biotinylated Avi-tag fusion KRAS, NRAS, and HRAS proteins were expressed in E. coli BL21 (DE3) strains, and after cells were homogenized, they were purified using Streptavidin Mutein Matrix and Superdex 75. After purification, GDP-loaded KRAS, NRAS, and HRAS proteins were immobilized on the surface of Sensor Chip CAP (Cytiva) coated with Biotin CAPture Reagent in an immobilization amount of about 100 to 300 RU. Binding of each compound was evaluated by the Single Cycle Kinetics method, and a running buffer or a compound solution was added to the RAS protein non-immobilized surface and the immobilized surface to obtain a binding response. The flow rate was set to 100 µL/min, and in the compound-adding cycle, compound solutions having different concentrations were intermittently added for 75 seconds each, starting from a low concentration. […] In the blank cycle, a running buffer was intermittently added and not the compound solution. The Biotin CAPture Reagent and RAS proteins were immobilized for each cycle, and at the end of each cycle, the sensor chip was regenerated by the regeneration solution appended to the Biotin CAPture Kit (Cytiva). Measurement was carried out at 30°C.
The resulting sensorgram was subjected to curve fitting based on a 1:1 binding model on Biacore Insight Evaluation Software or T200 Evaluation Software, and thereby the dissociation constant KD of each compound with respect to KRAS, NRAS, and HRAS was determined. […] Blank indicates a compound from which the KD value with respect to NRAS or HRAS was not obtained.

[2] = test system: human lung cancer strain NCI-H441; assay type: cell-based
Outline: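 Readout: […] after the ATP-based reagent. Compound: serial dilutions in dimethyl sulfoxide.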

[3] = target: GDP-bound NRAS wild-type protein (Homo sapiens, UniProt P01111); test: Binding to NRAS by surface plasmon resonance (SPR), KD and KD ratio to KRAS
Chain of GDP-bound NRAS wild-type protein (P01111 whole entry): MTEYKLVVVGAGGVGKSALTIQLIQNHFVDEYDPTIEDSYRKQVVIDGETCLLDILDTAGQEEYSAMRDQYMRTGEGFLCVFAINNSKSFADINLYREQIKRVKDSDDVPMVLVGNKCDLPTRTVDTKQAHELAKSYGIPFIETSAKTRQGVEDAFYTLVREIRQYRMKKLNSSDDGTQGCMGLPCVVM
Outline: (§1)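 GDP-loaded biotinylated Avi-tag RAS proteins (E. coli-expressed) captured on a Biotin CAPture chip at ~100–300 RU; single-cycle kinetics at 30°C, 100 µL/min, 75 s injections of rising compound concentrations. HBS pH 7.4 running buffer with 1 mM DTT, 10 mM MgCl2, 10 µM GDP, 4% DMSO. KD from 1:1 binding fit.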

HRAS wild-type protein = HRAS wild-type protein (Homo sapiens, UniProt P01112); test: Binding to HRAS by surface plasmon resonance (SPR), KD and KD ratio to KRAS
Chain of HRAS wild-type protein (P01112 whole entry): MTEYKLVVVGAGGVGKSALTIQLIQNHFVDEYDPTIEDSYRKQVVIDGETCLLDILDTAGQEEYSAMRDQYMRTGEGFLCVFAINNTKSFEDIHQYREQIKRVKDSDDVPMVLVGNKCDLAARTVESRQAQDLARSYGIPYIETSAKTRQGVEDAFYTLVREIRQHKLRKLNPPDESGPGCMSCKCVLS
Outline: as §1

[4] = ratio of KD for GDP-bound NRAS wild-type protein to KD for KRAS
[5] = ratio of KD for HRAS wild-type protein to KD for KRAS

Row | Compound | IC50 [2] [nM] | NRAS /KRAS [3, 4] | HRAS /KRAS (HRAS wild-type protein; [5]) | also measured
1 | CCCCN1C(=O)[C@@H]2CCN2C(=O)[C@H](C)N(C)C(=O)[C@H]([C@@H](C)CC)NC(=O)[C@H](CC(C)C)N(C)C(=O)C[C@@H](C(=O)N2CCOCC2)N(C)C(=O)[C@H](C2CCCC2)N(C)C(=O)C2(CCCC2)NC(=O)[C@@H]2CCCN2C(=O)[C@H](CCc2ccc(C(F)(F)F)c(Cl)c2)NC(=O)CN(C)C(=O)[C@@H]1Cc1ccc(C)cc1 [PP0055] ([NMeL]I[NMeA][Aze][X1][Sar][hPhe(3-Cl-4-CF3)]P[Ac5c][NMeGly(cPent)][NMeD]-Morpholide; lactam N-11) | 3.5 | – | – | Kd ([1]; 1:1 binding model): 0.27 nM
2 | CC[C@H](C)[C@@H]1NC(=O)[C@H](CC(C)C)N(C)C(=O)C[C@@H](C(=O)N2CCOCC2)N(C)C(=O)[C@H](C2CCCC2)N(C)C(=O)C2(CCC2)NC(=O)[C@@H]2C[C@@H](O)CN2C(=O)[C@H](CCc2cc(F)c(C(F)(F)F)c(F)c2)NC(=O)CN(C)C(=O)[C@H](Cc2ccc(C(F)(F)F)cc2)N2CCCCC[C@@H](C2=O)N(C)C(=O)CN(C)C1=O [PP0871] | 438 | – | – | Kd ([1]; Single Cycle Kinetics): 0.4 nM
3 | CC[C@H](C)[C@@H]1NC(=O)[C@H](CC(C)C)N(C)C(=O)C[C@@H](C(=O)N2CCOCC2)N(C)C(=O)[C@H](C2CCCC2)N(C)C(=O)C2(CCC2)NC(=O)[C@@H]2[C@@H](O)CCN2C(=O)[C@H](CCc2cc(F)c(C(F)(F)F)c(F)c2)NC(=O)CN(C)C(=O)[C@H](Cc2ccc(C(F)(F)F)cc2)N2CCCCC[C@@H](C2=O)N(C)C(=O)CN(C)C1=O [PP0872] | 2600 | – | – | Kd ([1]; Single Cycle Kinetics): 1.7 nM
4 | CCO[C@@H]1C[C@H]2C(=O)NC3(CCC3)C(=O)N(C)[C@@H](C(CC)CC)C(=O)N(C)[C@H](C(=O)N(C)C)CC(=O)N(C)[C@@H](C)C(=O)N[C@@H]([C@@H](C)CC)C(=O)N(C)CC(=O)N(C)[C@H]3C/C=C\CCN(C3=O)[C@@H](Cc3ccc(C(F)(F)F)cc3)C(=O)N(C)CC(=O)N[C@@H](CCc3ccc(C(F)(F)F)c(OC)c3)C(=O)N2C1 [PP1206] | – | – | – | Kd ([1]; Single Cycle Kinetics, 1:1 binding model): 0.17 nM; NRAS /KRAS ([3]; ratio of KD with respect to GDP-bound NRAS wild-type protein to KD with respect to KRAS): AA (a compound having 20 or more is denoted as AA); HRAS /KRAS (HRAS wild-type protein; ratio of KD with respect to HRAS wild-type protein to KD with respect to KRAS): A (a compound having 10 or more and less than 20 is denoted as A)
5 | CCC[C@H]1C(=O)N[C@@H]([C@@H](C)CC)C(=O)N2CCC[C@H]2C(=O)N(C)[C@H]2C/C=C\CCN(C2=O)[C@@H](Cc2ccc(C(F)(F)F)cc2)C(=O)N(C)CC(=O)N[C@@H](CCc2cc(F)c(C(F)(F)F)c(F)c2)C(=O)N2C[C@H](OCC)C[C@H]2C(=O)N(C)C2(CCC2)C(=O)N(C)[C@@H](C2CCCC2)C(=O)N(C)[C@H](C(=O)N2CCCCC2)CC(=O)N1C [PP3114] | 14.7 | AA (a compound having 20 or more is denoted as AA) | A (a compound having 10 or more and less than 20 is denoted as A) | –
6 | CCC[C@H]1C(=O)N[C@@H]([C@@H](C)CC)C(=O)N2CCC[C@H]2C(=O)N(C)[C@H]2C/C=C\CCN(C2=O)[C@@H](Cc2ccc(C)cc2)C(=O)N(C)CC(=O)N[C@@H](CCc2cc(F)c(C(F)(F)F)c(F)c2)C(=O)N2C[C@H](OCC)C[C@H]2C(=O)N(C)C2(CCC2)C(=O)N(C)[C@@H](C2CCCC2)C(=O)N(C)[C@H](C(=O)N2CCCCC2)CC(=O)N1C [PP3115] | 5.7 | A (a compound having 10 or more and less than 20 is denoted as A) | B (a compound having 3 or more and less than 10 is denoted as B) | –
7 | CCC[C@H]1C(=O)N[C@@H]([C@@H](C)CC)C(=O)N2CCC[C@H]2C(=O)N(C)[C@H]2C/C=C\CCN(C2=O)[C@@H](Cc2ccc(C(F)(F)F)cc2)C(=O)N(C)CC(=O)N[C@@H](CCc2cc(F)c(C(F)(F)F)c(F)c2)C(=O)N2C[C@H](OCC)C[C@H]2C(=O)N(C)C2(CCC2)C(=O)N(C)[C@@H](C2CCCC2)C(=O)N(C)[C@H](C(=O)N2CCCC2)CC(=O)N1C [PP3116] | 7.8 | A (a compound having 10 or more and less than 20 is denoted as A) | A (a compound having 10 or more and less than 20 is denoted as A) | –
8 | CCC[C@H]1C(=O)N[C@@H]([C@@H](C)CC)C(=O)N2CCC[C@H]2C(=O)N(C)[C@H]2C/C=C\CCN(C2=O)[C@@H](Cc2ccc(C)cc2)C(=O)N(C)CC(=O)N[C@@H](CCc2cc(F)c(C(F)(F)F)c(F)c2)C(=O)N2C[C@H](OCC)C[C@H]2C(=O)N(C)C2(CCC2)C(=O)N(C)[C@@H](C2CCCC2)C(=O)N(C)[C@H](C(=O)N2CCCC2)CC(=O)N1C [PP3117] | 2.6 | A (a compound having 10 or more and less than 20 is denoted as A) | A (a compound having 10 or more and less than 20 is denoted as A) | –
9 | CCC[C@H]1C(=O)N[C@@H]([C@@H](C)CC)C(=O)N(C)CC(=O)N(C)[C@H]2C/C=C\CCN(C2=O)[C@@H](Cc2ccc(C(F)(F)F)cc2)C(=O)N(C)CC(=O)N[C@@H](CCc2cc(F)c(C(F)(F)F)c(F)c2)C(=O)N2C[C@H](OCC)C[C@H]2C(=O)N(C)C2(CCC2)C(=O)N(C)[C@@H](C2CCCC2)C(=O)N(C)[C@H](C(=O)N2CCCCC2)CC(=O)N1C [PP3118] | 6.7 | A (a compound having 10 or more and less than 20 is denoted as A) | B (a compound having 3 or more and less than 10 is denoted as B) | –
10 | CCC[C@H]1C(=O)N[C@@H]([C@@H](C)CC)C(=O)N(C)CC(=O)N(C)[C@H]2C/C=C\CCN(C2=O)[C@@H](Cc2ccc(C)cc2)C(=O)N(C)CC(=O)N[C@@H](CCc2cc(F)c(C(F)(F)F)c(F)c2)C(=O)N2C[C@H](OCC)C[C@H]2C(=O)N(C)C2(CCC2)C(=O)N(C)[C@@H](C2CCCC2)C(=O)N(C)[C@H](C(=O)N2CCCCC2)CC(=O)N1C [PP3119] | 3.5 | A (a compound having 10 or more and less than 20 is denoted as A) | A (a compound having 10 or more and less than 20 is denoted as A) | –
11 | CCC[C@H]1C(=O)N[C@@H]([C@@H](C)CC)C(=O)N(C)CC(=O)N(C)[C@H]2C/C=C\CCN(C2=O)[C@@H](Cc2ccc(C(F)(F)F)cc2)C(=O)N(C)CC(=O)N[C@@H](CCc2cc(F)c(C(F)(F)F)c(F)c2)C(=O)N2C[C@H](OCC)C[C@H]2C(=O)N(C)C2(CCC2)C(=O)N(C)[C@@H](C2CCCC2)C(=O)N(C)[C@H](C(=O)N2CCCC2)CC(=O)N1C [PP3120] | 1.9 | AA (a compound having 20 or more is denoted as AA) | A (a compound having 10 or more and less than 20 is denoted as A) | –
12 | CCC[C@H]1C(=O)N[C@@H]([C@@H](C)CC)C(=O)N(C)CC(=O)N(C)[C@H]2C/C=C\CCN(C2=O)[C@@H](Cc2ccc(C)cc2)C(=O)N(C)CC(=O)N[C@@H](CCc2cc(F)c(C(F)(F)F)c(F)c2)C(=O)N2C[C@H](OCC)C[C@H]2C(=O)N(C)C2(CCC2)C(=O)N(C)[C@@H](C2CCCC2)C(=O)N(C)[C@H](C(=O)N2CCCC2)CC(=O)N1C [PP3121] | 1.5 | A (a compound having 10 or more and less than 20 is denoted as A) | A (a compound having 10 or more and less than 20 is denoted as A) | –
13 | CCO[C@@H]1C[C@H]2C(=O)NC3(CC(C)(C)C3)C(=O)N(C)[C@@H](C3CCCC3)C(=O)N(C)[C@H](C(=O)N(C)CC)CC(=O)N(C)[C@@H]([C@@H](C)OC)C(=O)N[C@@H]([C@@H](C)CC)C(=O)N(C3CC3)CC(=O)N(C)[C@H]3C/C=C\CCN(C3=O)[C@@H](Cc3ccc(C)cc3)C(=O)N(C)CC(=O)N[C@@H](CCc3cc(F)c(C(F)(F)F)c(F)c3)C(=O)N2C1 [PP3184] | 30.4 | A (a compound having 10 or more and less than 20 is denoted as A) | A (a compound having 10 or more and less than 20 is denoted as A) | –
14 | CCO[C@@H]1C[C@H]2C(=O)NC3(CC(C)(C)C3)C(=O)N(C)[C@@H](C3CCCC3)C(=O)N(C)[C@H](C(=O)N(C)C)CC(=O)N(C)[C@@H]([C@H](C)OC)C(=O)N[C@@H]([C@@H](C)CC)C(=O)N3CCC[C@H]3C(=O)N(C)[C@H]3C/C=C\CCN(C3=O)[C@@H](Cc3ccc(C)cc3)C(=O)N(C)CC(=O)N[C@@H](CCc3ccc(C(F)(F)F)c(Cl)c3)C(=O)N2C1 [PP3201] | 128 | A (a compound having 10 or more and less than 20 is denoted as A) | A (a compound having 10 or more and less than 20 is denoted as A) | –
